Assay results taken from ChEMBL document CHEMBL4819124, “Folate-targeted verrucarin A reduces the number of activated macrophages in a mouse model of acute peritonitis” (Bioorg Med Chem Lett, 2021).
Activity calls are given as the source filed them. No cut-off for these calls is given here. *1 amine or outer side, *2 acyl side, *3 side chain or, on linkers, in order; H or OH if unused. Where a SMILES comes first, the peptide text is derived from it. The star is where a group is joined. Pteroyl = Nc1nc2ncc(CNc3ccc(C(=O)*)cc3)nc2c(=O)[nH]1; γGlu = O=C(O)[C@H](CCC(=O)[*:2])N[*:1]

Assays:
Folate receptor beta = Folate receptor beta (Homo sapiens, UniProt P14207); experiment: Displacement of [3H]-folic acid from FRbeta (unknown origin) expressed in mouse RAW264.7 cells after 1 hr; type: cell-based
Folate receptor alpha = Folate receptor alpha (Homo sapiens, UniProt P15328); experiment: Displacement of [3H]-folic acid from FRalpha (unknown origin) expressed in human KB cells after 1 hr; type: cell-based
Mus musculus [1] = experiment: (§1) Antiinflammatory activity against mouse model of thioglycolate induced peritonitis assessed as decrease in total macrophage population in peritoneal fluid at 1000 nmol/kg, ip dosed twice everyday measured after 3 days by staining based flow cytometric analysis relative to control; type: functional, organism-based; conditions: time 3.0 day
Mus musculus [2] = experiment: Antiinflammatory activity against mouse model of thioglycolate induced peritonitis assessed as effect on lymphocytes in peritoneal fluid at 1000 nmol/kg, ip dosed twice everyday measured after 3 days by staining based flow cytometric analysis relative to control; type: functional, organism-based; conditions: time 3.0 day
Mus musculus [3] = experiment: as §1, with “FR+ macrophages” for “total macrophage population”, “by Alexafluor-488 goat anti-rabbitIgG” for “by”; type: functional, organism-based; conditions: time 3.0 day
RAW264.7 = experiment: Cytotoxicity against mouse RAW264.7 cells assessed as reduction in cell viability treated for 1 hr followed by 72 hrs incubation in drug free media by [3H]-thymidine incorporation assay; type: functional, cell-based
KB = experiment: Cytotoxicity against human KB cells assessed as reduction in cell viability treated for 1 hr followed by 72 hrs incubation in drug free media by [3H]-thymidine incorporation assay; type: cell-based
Mus musculus [4] = experiment: Antiinflammatory activity against mouse model of thioglycolate induced peritonitis assessed as effect on granulocytes in peritoneal fluid at 1000 nmol/kg, ip dosed twice everyday measured after 3 days by staining based flow cytometric analysis relative to control; type: functional, organism-based; conditions: time 3.0 day

Sequence of Folate receptor beta (P14207 whole entry): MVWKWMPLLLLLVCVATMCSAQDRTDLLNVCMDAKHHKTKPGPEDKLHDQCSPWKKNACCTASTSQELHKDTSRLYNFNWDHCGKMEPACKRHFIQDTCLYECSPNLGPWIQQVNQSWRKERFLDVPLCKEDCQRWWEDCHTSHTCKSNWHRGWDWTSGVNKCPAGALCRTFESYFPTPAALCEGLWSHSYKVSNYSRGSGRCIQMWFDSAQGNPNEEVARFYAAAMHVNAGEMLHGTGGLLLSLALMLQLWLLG
Sequence of Folate receptor alpha (P15328 whole entry): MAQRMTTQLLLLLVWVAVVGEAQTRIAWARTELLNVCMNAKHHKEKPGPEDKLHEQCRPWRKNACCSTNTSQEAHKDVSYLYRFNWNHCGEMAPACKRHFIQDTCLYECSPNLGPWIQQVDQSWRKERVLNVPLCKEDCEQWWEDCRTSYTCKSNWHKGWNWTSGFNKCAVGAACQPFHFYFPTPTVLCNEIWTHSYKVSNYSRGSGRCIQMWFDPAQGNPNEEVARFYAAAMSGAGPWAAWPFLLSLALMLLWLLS

Structure (SMILES) | IC50 (Folate receptor beta) | IC50 (Folate receptor alpha) | Activity (Mus musculus [1]) | Activity (Mus musculus [2]) | Activity (Mus musculus [3]) | IC50 (RAW264.7) | IC50 (KB) | Activity (Mus musculus [4])
N=C(N)NCCC[C@H](NC(=O)[C@H](CC(=O)O)NC(=O)CC[C@H](NC(=O)c1ccc(NCc2cnc3nc(N)[nH]c(=O)c3n2)cc1)C(=O)O)C(=O)N[C@@H](CC(=O)O)C(=O)N[C@@H](CC(=O)O)C(=O)N[C@@H](CS)C(=O)O ({Pteroyl-γGlu}-DRDDC-OH) | 0.56 nM | 1.4 nM |  |  |  |  |  | 
CC1=C[C@H]2O[C@@H]3C[C@H]4OC(=O)/C=C\C=C\C(=O)OCC[C@@H](C)[C@H](OC(=O)OCCSSC[C@H](NC(=O)[C@H](CC(=O)O)NC(=O)[C@H](CC(=O)O)NC(=O)[C@H](CCCNC(=N)N)NC(=O)[C@H](CC(=O)O)NC(=O)CC[C@H](NC(=O)c5ccc(NCc6cnc7nc(N)[nH]c(=O)c7n6)cc5)C(=O)O)C(=O)O)C(=O)OC[C@@]2(CC1)[C@]4(C)[C@]31CO1 |  |  | Active | inactive | Active | 8.5 nM | 525 nM | inactive
